For test [1], the target named is Mitogen-activated protein kinase kinase kinase 10 (Homo sapiens) (UniProt Q02779). Description: Inhibition of MLK2 (unknown origin) assessed as residual activity at 1000 nM by KINOMEscan analysis relative to control.
For test [2], the target named is T1, Serine/threonine-protein kinase Nek10 (Homo sapiens) (UniProt Q6ZWH5).
T1 sequence (whole entry): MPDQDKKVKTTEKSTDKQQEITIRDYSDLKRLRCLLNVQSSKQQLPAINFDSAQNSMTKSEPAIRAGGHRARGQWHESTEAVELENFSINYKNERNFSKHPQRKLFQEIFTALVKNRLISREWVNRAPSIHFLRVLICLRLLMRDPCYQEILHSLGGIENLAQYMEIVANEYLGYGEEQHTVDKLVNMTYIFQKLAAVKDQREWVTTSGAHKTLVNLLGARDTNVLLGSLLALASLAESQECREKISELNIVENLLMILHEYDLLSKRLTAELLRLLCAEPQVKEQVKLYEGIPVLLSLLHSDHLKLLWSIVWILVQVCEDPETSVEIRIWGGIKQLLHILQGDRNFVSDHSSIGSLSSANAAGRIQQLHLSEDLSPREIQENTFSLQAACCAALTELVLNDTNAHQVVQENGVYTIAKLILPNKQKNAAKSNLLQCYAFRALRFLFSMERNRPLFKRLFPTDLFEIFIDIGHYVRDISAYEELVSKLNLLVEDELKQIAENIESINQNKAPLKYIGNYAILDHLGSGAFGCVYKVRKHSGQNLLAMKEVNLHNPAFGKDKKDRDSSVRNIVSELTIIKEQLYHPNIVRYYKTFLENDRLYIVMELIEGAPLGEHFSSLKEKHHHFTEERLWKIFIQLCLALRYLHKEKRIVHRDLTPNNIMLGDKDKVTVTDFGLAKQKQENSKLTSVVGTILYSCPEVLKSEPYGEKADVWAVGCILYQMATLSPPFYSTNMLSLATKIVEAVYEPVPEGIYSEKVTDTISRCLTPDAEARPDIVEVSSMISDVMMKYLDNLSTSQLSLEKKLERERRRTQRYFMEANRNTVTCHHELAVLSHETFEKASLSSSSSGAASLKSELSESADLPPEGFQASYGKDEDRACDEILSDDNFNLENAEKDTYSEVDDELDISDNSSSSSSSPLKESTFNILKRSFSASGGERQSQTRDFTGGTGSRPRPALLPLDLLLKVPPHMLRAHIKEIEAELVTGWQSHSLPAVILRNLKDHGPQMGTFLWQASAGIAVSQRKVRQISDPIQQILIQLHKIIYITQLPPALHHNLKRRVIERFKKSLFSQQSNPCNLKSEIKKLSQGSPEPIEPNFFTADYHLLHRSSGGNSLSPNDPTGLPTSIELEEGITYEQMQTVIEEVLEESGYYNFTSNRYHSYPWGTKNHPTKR
Description: Inhibition of NEK10 (unknown origin) assessed as residual activity at 1000 nM by KINOMEscan analysis relative to control.

The target in test [3] is Cyclin-dependent kinase 2 homolog (Plasmodium falciparum (isolate K1 / Thailand)) (UniProt Q07785). Description: Inhibition of Plasmodium falciparum PK5 assessed as residual activity at 1000 nM by KINOMEscan analysis relative to control.
Chain of Cyclin-dependent kinase 2 homolog (Plasmodium falciparum (isolate K1 / Thailand)) (Q07785 whole entry, canonical isoform): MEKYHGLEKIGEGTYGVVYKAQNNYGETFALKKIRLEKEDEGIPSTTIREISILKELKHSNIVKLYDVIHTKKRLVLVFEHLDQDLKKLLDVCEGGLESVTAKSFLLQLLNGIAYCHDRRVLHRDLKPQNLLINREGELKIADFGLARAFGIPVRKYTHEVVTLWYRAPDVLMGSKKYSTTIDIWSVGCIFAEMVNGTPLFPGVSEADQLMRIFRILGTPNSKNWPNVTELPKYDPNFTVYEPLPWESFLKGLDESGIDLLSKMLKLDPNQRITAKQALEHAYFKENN
For test [4], the system named is Phosphatidylinositol 4,5-bisphosphate 3-kinase catalytic subunit alpha isoform (Homo sapiens), P42336 [E545K]. The experiment in a line: Inhibition of PIK3CA E545K mutant (unknown origin) assessed as residual activity at 1000 nM by KINOMEscan analysis relative to control.
Chain of Phosphatidylinositol 4,5-bisphosphate 3-kinase catalytic subunit alpha isoform (Homo sapiens), P42336 [E545K] (P42336 whole entry E545K, canonical isoform): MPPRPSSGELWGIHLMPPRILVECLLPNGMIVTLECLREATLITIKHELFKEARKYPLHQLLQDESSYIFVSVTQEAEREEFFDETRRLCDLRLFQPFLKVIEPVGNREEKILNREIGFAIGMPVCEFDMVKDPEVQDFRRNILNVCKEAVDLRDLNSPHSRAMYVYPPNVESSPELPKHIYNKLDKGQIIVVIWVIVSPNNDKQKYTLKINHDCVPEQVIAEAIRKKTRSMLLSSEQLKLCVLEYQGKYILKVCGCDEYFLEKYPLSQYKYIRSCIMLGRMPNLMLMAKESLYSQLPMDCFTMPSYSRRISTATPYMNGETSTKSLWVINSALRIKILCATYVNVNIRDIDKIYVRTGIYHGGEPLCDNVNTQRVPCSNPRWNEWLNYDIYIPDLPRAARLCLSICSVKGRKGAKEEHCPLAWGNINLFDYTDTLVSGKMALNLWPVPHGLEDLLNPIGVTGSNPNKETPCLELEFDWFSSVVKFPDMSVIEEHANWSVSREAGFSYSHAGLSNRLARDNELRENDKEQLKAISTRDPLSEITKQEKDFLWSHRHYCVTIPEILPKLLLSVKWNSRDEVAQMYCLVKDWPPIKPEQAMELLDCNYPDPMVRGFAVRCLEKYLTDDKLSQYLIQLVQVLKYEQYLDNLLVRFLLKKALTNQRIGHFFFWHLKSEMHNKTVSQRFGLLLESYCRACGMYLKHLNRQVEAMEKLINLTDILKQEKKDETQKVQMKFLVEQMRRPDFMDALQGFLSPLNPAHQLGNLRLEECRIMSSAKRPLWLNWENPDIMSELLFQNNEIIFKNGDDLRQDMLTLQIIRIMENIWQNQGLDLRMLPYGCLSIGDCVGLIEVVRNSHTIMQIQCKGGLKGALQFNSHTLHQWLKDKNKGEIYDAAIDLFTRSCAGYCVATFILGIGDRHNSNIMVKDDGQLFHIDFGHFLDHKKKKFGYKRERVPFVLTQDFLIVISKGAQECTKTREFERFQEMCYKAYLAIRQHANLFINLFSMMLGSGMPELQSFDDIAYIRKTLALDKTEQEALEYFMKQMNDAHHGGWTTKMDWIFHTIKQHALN
Test [5] addresses Protein kinase C delta type (Homo sapiens) (UniProt Q05655). The experiment in a line: Inhibition of PRKCD (unknown origin) assessed as residual activity at 1000 nM by KINOMEscan analysis relative to control.
For test [6], the target named is Mitogen-activated protein kinase kinase kinase 20 (Homo sapiens) (UniProt Q9NYL2). The experiment in a line: Inhibition of ZAK (unknown origin) assessed as residual activity at 1000 nM by KINOMEscan analysis relative to control.
Chain of Mitogen-activated protein kinase kinase kinase 20 (Homo sapiens) (Q9NYL2 2-800 limits assumed): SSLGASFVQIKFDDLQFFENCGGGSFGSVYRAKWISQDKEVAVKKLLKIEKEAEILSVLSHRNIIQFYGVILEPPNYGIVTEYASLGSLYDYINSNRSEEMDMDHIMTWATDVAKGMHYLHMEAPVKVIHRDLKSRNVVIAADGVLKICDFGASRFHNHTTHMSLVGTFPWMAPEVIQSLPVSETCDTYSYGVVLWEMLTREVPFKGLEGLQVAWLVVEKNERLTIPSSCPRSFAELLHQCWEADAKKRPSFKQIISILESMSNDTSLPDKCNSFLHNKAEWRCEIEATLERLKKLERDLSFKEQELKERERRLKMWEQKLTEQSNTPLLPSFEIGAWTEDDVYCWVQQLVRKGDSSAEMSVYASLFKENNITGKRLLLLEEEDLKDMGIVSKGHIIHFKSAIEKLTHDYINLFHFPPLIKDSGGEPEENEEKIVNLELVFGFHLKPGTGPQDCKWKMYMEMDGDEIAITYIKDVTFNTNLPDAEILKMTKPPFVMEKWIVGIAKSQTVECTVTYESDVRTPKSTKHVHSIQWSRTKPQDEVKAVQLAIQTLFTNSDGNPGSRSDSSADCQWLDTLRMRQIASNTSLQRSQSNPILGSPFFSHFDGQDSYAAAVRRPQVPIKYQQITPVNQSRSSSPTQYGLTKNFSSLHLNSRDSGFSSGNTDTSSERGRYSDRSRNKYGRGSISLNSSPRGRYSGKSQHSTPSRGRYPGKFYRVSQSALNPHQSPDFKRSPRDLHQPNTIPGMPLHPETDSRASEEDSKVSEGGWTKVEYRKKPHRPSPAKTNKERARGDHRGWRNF
For test [7], the target named is T2, Son of sevenless homolog 1 (Homo sapiens) (UniProt Q07889).
T2 sequence (whole entry): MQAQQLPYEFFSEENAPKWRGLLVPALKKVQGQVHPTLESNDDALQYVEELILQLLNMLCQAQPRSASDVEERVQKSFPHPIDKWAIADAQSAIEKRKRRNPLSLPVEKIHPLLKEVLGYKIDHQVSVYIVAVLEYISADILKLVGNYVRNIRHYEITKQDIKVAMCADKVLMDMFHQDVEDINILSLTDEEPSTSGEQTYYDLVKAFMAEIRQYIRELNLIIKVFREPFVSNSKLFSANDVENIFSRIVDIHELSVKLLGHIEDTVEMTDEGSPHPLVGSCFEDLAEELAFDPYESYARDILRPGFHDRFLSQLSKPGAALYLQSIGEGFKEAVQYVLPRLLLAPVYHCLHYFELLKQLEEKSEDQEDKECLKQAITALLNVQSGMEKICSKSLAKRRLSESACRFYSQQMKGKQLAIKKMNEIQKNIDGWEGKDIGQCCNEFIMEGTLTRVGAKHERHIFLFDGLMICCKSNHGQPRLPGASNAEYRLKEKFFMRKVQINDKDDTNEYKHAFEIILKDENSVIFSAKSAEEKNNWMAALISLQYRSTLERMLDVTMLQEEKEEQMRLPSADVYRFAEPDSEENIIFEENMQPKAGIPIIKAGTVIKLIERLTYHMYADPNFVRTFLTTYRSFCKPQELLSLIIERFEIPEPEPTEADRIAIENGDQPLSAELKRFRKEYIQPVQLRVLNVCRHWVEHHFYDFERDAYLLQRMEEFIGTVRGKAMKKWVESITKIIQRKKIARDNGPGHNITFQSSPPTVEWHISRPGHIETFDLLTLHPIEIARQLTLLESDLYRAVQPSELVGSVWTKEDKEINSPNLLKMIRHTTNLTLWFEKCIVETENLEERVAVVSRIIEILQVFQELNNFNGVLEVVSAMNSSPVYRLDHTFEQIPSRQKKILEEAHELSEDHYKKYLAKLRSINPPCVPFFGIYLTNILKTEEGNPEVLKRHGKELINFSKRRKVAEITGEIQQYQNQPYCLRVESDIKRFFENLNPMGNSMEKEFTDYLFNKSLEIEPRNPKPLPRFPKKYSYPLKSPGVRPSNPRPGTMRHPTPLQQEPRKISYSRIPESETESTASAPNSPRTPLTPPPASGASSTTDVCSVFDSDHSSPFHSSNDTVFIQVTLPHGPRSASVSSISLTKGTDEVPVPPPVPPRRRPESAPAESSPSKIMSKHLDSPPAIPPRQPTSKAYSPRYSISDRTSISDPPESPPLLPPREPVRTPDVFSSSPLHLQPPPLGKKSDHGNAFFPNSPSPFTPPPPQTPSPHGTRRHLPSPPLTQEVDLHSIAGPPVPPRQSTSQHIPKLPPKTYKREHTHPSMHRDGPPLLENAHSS
Description: Stabilization of N-terminal His10-tagged wild-type recombinant human SOS1 catalytic domain (564 to 1049 residues) expressed in Escherichia coli assessed as change in melting temperature at 100 uM with heating from 25 to 85 degreeC by thermal shift assay.

Chain of Mitogen-activated protein kinase kinase kinase 10 (Homo sapiens) (Q02779 whole entry, looked up): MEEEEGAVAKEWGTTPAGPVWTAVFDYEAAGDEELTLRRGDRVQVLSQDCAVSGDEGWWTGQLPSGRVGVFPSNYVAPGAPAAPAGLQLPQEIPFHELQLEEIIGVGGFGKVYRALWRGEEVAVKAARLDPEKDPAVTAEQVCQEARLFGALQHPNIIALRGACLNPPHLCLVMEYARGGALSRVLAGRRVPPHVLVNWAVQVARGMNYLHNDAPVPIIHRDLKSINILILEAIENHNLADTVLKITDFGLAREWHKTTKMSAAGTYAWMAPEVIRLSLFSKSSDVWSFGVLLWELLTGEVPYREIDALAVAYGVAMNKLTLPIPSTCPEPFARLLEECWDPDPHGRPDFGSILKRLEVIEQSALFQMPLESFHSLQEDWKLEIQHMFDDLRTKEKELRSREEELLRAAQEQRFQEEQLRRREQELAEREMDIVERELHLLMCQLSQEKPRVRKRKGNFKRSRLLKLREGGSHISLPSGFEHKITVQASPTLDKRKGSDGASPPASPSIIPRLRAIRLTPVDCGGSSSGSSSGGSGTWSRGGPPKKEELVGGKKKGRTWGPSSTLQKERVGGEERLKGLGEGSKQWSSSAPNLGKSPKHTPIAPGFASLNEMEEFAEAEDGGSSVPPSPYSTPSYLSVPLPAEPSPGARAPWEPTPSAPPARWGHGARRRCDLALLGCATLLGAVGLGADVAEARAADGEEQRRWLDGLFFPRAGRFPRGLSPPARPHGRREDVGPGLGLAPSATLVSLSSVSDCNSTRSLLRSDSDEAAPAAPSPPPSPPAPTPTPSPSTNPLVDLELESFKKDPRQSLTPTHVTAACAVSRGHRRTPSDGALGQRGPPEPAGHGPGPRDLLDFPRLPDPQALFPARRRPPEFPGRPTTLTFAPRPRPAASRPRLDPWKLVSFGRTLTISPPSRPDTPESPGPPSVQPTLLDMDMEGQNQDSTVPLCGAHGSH
Chain of Protein kinase C delta type (Homo sapiens) (Q05655 whole entry, looked up): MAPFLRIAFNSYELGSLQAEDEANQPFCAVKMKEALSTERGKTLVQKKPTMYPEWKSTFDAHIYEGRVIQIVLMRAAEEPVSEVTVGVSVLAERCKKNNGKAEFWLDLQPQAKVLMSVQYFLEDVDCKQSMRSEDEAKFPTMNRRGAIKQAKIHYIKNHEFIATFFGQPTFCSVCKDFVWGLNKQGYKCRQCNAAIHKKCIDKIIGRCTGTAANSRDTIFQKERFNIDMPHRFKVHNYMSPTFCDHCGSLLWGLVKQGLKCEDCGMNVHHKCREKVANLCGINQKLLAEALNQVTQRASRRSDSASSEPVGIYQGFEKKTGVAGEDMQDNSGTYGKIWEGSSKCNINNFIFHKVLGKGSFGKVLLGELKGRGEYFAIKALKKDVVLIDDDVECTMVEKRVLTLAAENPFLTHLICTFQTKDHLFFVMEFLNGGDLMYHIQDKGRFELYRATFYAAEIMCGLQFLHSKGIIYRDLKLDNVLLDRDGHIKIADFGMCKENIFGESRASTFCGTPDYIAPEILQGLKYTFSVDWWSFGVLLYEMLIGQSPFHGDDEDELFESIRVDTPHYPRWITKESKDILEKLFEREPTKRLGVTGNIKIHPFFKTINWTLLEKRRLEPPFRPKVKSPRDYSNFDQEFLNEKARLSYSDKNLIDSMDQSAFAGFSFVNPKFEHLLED

For `COc1cc2nc(C)nc(N[C@H](C)c3cccc(-c4cn[nH]c4)c3)c2cc1OC`, the Activity came out at 42% in test [1]; 90% in test [2]; 98% in test [3]; 54% in test [4]; 59% in test [5]; 89% in test [6].

One may read the ΔTm as the shift of the melting midpoint relative to a reference. As for `COc1cc2ncnc(N[C@H](C)c3cccc4ccccc34)c2cc1OC`, the ΔTm in test [7] is 2.5 °C. The Activity in test [1] turned out to be 97%; in test [2], 68%; in test [3], 100%; in test [4] it was 98%; in test [5] it was 81%; in test [6], 89%.

Turning to `CNCc1ccccc1-c1csc([C@@H](C)Nc2nc(C)nc3cc(OC)c(OC)cc23)c1` [BAY-293], the ΔTm in test [7] came to 3.17 °C.

(Values after ChEMBL document CHEMBL5678818, “Discovery of potent SOS1 inhibitors that block RAS activation via disruption of the RAS-SOS1 interaction” (Proc Natl Acad Sci U S A, 2019).)
